Source: patent US20140287997A1, “USE OF GROWTH HORMONE OR GROWTH HORMONE RECEPTOR AGONISTS TO PREVENT OR TREAT STRESS-SENSITIVE PSYCHIATRIC ILLNESS” (Massachusetts Institute of Technology, priority 2013, published 2014)

Key:
[1] = target: T1, ghrelin receptor in BLA cells (Rattus norvegicus, UniProt O08725); test: GH release from short-term BLA cell cultures; type: cell-based; conditions: versus vehicle, P<0.05
T1 construct: short-term cultures were generated of BLA cells and measured GH protein in the media following treatment with either MK-0677 or vehicle; endogenous in cells; host or cells: short-term primary cultures of basolateral amygdala (BLA) cells
Description: To determine whether ghrelin receptor stimulation in amygdala triggers the release of GH as it does from the pituitary,^43 short-term cultures were generated of BLA cells and measured GH protein in the media following treatment with either MK-0677 or vehicle.

[2] = system: GH-mediated signaling in the BLA; test: Auditory fear conditioning after intra-BLA AAV (GHA or GFP) and 10 days systemic MK-0677 or saline; type: in vivo, rat; conditions: repeated systemic MK-0677 for 10 days
Experimental: An AAV viral construct to overexpress a mutant form of the rat GH protein (GHA) that acts as a functional antagonist to endogenous GH was generated.^49,50 Following infusion of AAV to overexpress either GHA or a control protein (GFP) (FIG. 5f), rats were permitted to recover for 5 weeks. After recovery, rats that were infused with GHA received daily injections of either the ghrelin receptor agonist MK-0677 (MK) or saline (SAL) for 10 days. […] At 24 h after the final injection, all rats were subjected to auditory fear conditioning, followed by assessment of long-term auditory fear memory in a subsequent session 48 h later.

rats [3] = test: Sucrose preference (measuring hedonia) as a measure of depression; type: in vivo, rat; conditions: repeated ghrelin receptor stimulation
Description: Sucrose preference (measuring hedonia) as a measure of depression with low dose MK0677 or high dose MK0677 was also examined. […] Repeated ghrelin receptor stimulation (mimicking one effect of chronic stress, which is to enhance the circulating levels of ghrelin and thus ghrelin signaling) induces depressive behaviors in rats.

rats [4] = test: Forced swim as a measure of depression; type: in vivo, rat; conditions: high dose, repeated ghrelin receptor stimulation
Description: Forced swim as a measure of depression was also examined. […] Repeated ghrelin receptor stimulation (mimicking one effect of chronic stress, which is to enhance the circulating levels of ghrelin and thus ghrelin signaling) induces depressive behaviors in rats.

T1 sequence (O08725 whole entry): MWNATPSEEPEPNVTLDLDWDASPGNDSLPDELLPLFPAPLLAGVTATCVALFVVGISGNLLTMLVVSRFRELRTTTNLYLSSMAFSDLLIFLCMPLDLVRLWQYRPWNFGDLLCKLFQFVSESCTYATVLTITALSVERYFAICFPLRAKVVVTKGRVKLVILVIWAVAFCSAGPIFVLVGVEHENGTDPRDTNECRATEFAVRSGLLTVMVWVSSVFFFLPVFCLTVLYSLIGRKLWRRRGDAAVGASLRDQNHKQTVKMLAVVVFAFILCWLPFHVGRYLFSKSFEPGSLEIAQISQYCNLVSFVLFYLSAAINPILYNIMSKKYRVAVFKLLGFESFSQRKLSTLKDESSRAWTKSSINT

GH protein released in the media [1]: significantly elevated release of GH
Structure (SMILES): CC(C)(N)C(=O)N[C@H](COCc1ccccc1)C(=O)N1CCC2(CC1)CN(S(C)(=O)=O)c1ccccc12 [MK-0677]
long-term auditory fear memory [2]: fear-enhancing effects
sucrose preference (hedonia) (rats [3]; high dose): led to anhedonia
sucrose preference (hedonia) (rats [3]; low dose): led to anhedonia
forced swim behaviour (rats [4]): led to immobility in the forced swim
